The record followed here is the supplement of paper PMC10307832.

Common to all, as to test: relative viability (nuclei count vs DMSO), 5 days (fraction); higher = more cells survive
Compound in assay [1]: COc1cccc2cc(-c3nc([C@H]4CC[C@H](C(=O)O)CC4)n4ncnc(N)c34)[nH]c12 [OSI-027] + CCNC(=O)c1noc(-c2cc(C(C)C)c(O)cc2O)c1-c1ccc(CN2CCOCC2)cc1 [Luminespib] (partner 0.01 µM)
In a few lines:
(§1)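 Relative viability equals treated-well nuclei counts divided by vehicle-well nuclei counts. Counts came from 4× images of lung cancer cell lines grown in 1536-well plates for 5 days after pin-tool dosing on the day after seeding. Dosing used one drug alone or a fixed anchor-drug dose plus five library-drug doses (not always all listed) in √10 steps, and values are medians of duplicate plates.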

Compound in assay [2]: COc1cccc2cc(-c3nc([C@H]4CC[C@H](C(=O)O)CC4)n4ncnc(N)c34)[nH]c12 [OSI-027] + CC(=O)Nc1cccc(-n2c(=O)n(C3CC3)c(=O)c3c(Nc4ccc(I)cc4F)n(C)c(=O)c(C)c32)c1 [Trametinib] (partner 0.02 µM)
In a few lines:
as §1

Compound in assay [3]: COc1cccc2cc(-c3nc([C@H]4CC[C@H](C(=O)O)CC4)n4ncnc(N)c34)[nH]c12 [OSI-027] + NC(=O)Nc1cc(-c2cccc(F)c2)sc1C(=O)N[C@H]1CCCNC1 [AZD7762] (partner 0.2 µM)
In a few lines: as §1

Compound in assay [4]: CCCS(=O)(=O)Nc1ccc(F)c(C(=O)c2c[nH]c3ncc(-c4ccc(Cl)cc4)cc23)c1F [Vemurafenib] + COc1cc2c(Oc3ccc(NC(=O)C4(C(=O)Nc5ccc(F)cc5)CC4)cc3F)ccnc2cc1OCCCN1CCOCC1 [Foretinib] (partner 0.25 µM)
In a few lines: as §1

With NCI-H441, the relative viability was 0.367 in assay [1] (first compound 0.01 µM); 0.393 in assay [1] (first compound 0.03162 µM); 0.307 in assay [1] (first compound 0.1 µM); 0.235 in assay [1] (first compound 0.3162 µM); 0.236 in assay [1] (first compound 1 µM); 0.346 in assay [2] (first compound 0.01 µM). For the same cell line, the relative viability in assay [2] (first compound 0.03162 µM) stood at 0.434; in assay [2] (first compound 0.1 µM) it was 0.486; in assay [2] (first compound 0.3162 µM), 0.362; in assay [2] (first compound 1 µM) it was 0.253; in assay [3] (first compound 0.01 µM) it was 1.35; in assay [3] (first compound 0.03162 µM), 1.07. Further, the relative viability in assay [3] (first compound 0.1 µM) turned out to be 1.24; in assay [3] (first compound 0.3162 µM), 0.934; in assay [3] (first compound 1 µM), 0.499; in assay [4] (first compound 0.03162 µM), 0.962; in assay [4] (first compound 0.1 µM) it was 0.696; in assay [4] (first compound 0.3162 µM) it was 0.919. The relative viability in assay [4] (first compound 1 µM) stood at 0.912.
Take NCI-H1793: the relative viability was 0.162 in assay [1] (first compound 0.01 µM); 0.188 in assay [1] (first compound 0.03162 µM); 0.168 in assay [1] (first compound 0.1 µM); 0.132 in assay [1] (first compound 0.3162 µM); 0.168 in assay [1] (first compound 1 µM); 0.489 in assay [2] (first compound 0.01 µM). Moreover, the relative viability in assay [2] (first compound 0.03162 µM) came out at 0.431; in assay [2] (first compound 0.1 µM), 0.35; in assay [2] (first compound 0.3162 µM), 0.344; in assay [2] (first compound 1 µM), 0.21; in assay [3] (first compound 0.01 µM), 0.409; in assay [3] (first compound 0.03162 µM), 0.435. The relative viability in assay [3] (first compound 0.1 µM) worked out at 0.399; in assay [3] (first compound 0.3162 µM), 0.36; in assay [3] (first compound 1 µM), 0.239; in assay [4] (first compound 0.03162 µM), 0.789; in assay [4] (first compound 0.3162 µM), 0.709; in assay [4] (first compound 1 µM) it was 0.922.
On to 201T, for which the relative viability in assay [1] (first compound 0.01 µM) was found to be 1.09; in assay [1] (first compound 0.03162 µM), 1.06; in assay [1] (first compound 0.1 µM), 1; in assay [1] (first compound 0.3162 µM), 0.948; in assay [1] (first compound 1 µM), 0.485; in assay [2] (first compound 0.01 µM) it was 0.742. The relative viability in assay [2] (first compound 0.03162 µM) worked out at 0.716; in assay [2] (first compound 0.1 µM), 0.717; in assay [2] (first compound 0.3162 µM), 0.717; in assay [2] (first compound 1 µM), 0.674; in assay [3] (first compound 0.01 µM), 0.562; in assay [3] (first compound 0.03162 µM), 0.691. Further, the relative viability in assay [3] (first compound 0.1 µM) is 0.585; in assay [3] (first compound 0.3162 µM) it was 0.472; in assay [3] (first compound 1 µM), 0.511; in assay [4] (first compound 0.03162 µM), 0.984; in assay [4] (first compound 0.1 µM), 1; in assay [4] (first compound 0.3162 µM) it was 1.06. Also, in assay [4] (first compound 1 µM), the relative viability came to 1.1.
On to NCI-H460, for which the relative viability was 0.0335 in assay [1] (first compound 0.01 µM); 0.032 in assay [1] (first compound 0.03162 µM); 0.0283 in assay [1] (first compound 0.1 µM); 0.0249 in assay [1] (first compound 0.3162 µM); 0.0266 in assay [1] (first compound 1 µM); 0.152 in assay [2] (first compound 0.01 µM). Also, the relative viability in assay [2] (first compound 0.03162 µM) amounted to 0.13; in assay [2] (first compound 0.1 µM), 0.145; in assay [2] (first compound 0.3162 µM), 0.129; in assay [2] (first compound 1 µM) it was 0.12; in assay [3] (first compound 0.01 µM) it was 0.731; in assay [3] (first compound 0.03162 µM) it was 0.668. Also, the relative viability amounted to 0.473 in assay [3] (first compound 0.1 µM); 0.548 in assay [3] (first compound 0.3162 µM); 0.336 in assay [3] (first compound 1 µM); 0.96 in assay [4] (first compound 0.03162 µM); 0.982 in assay [4] (first compound 0.1 µM); 0.909 in assay [4] (first compound 0.3162 µM). In assay [4] (first compound 1 µM), the relative viability amounted to 1.05.
On to NCI-H1666, for which the relative viability in assay [1] (first compound 0.01 µM) was found to be 1.01; in assay [1] (first compound 0.03162 µM), 1; in assay [1] (first compound 0.1 µM), 0.996; in assay [1] (first compound 0.3162 µM), 0.891; in assay [1] (first compound 1 µM), 0.915; in assay [2] (first compound 0.01 µM) it was 0.865. Moreover, the relative viability in assay [2] (first compound 0.03162 µM) stood at 0.848; in assay [2] (first compound 0.1 µM), 0.843; in assay [2] (first compound 0.3162 µM), 0.765; in assay [2] (first compound 1 µM), 0.692; in assay [3] (first compound 0.01 µM), 0.837; in assay [3] (first compound 0.03162 µM), 0.707. Moreover, the relative viability in assay [3] (first compound 0.1 µM) is 0.763; in assay [3] (first compound 0.3162 µM), 0.766; in assay [3] (first compound 1 µM) it was 0.585; in assay [4] (first compound 0.03162 µM) it was 0.99; in assay [4] (first compound 0.1 µM), 0.87; in assay [4] (first compound 0.3162 µM) it was 0.993. Further, in assay [4] (first compound 1 µM), the relative viability is 0.925.
Turning to HOP-62, the relative viability stood at 0.954 in assay [1] (first compound 0.01 µM); 0.904 in assay [1] (first compound 0.03162 µM); 0.957 in assay [1] (first compound 0.1 µM); 0.926 in assay [1] (first compound 0.3162 µM); 0.363 in assay [1] (first compound 1 µM); 0.383 in assay [2] (first compound 0.01 µM). The relative viability was found to be 0.347 in assay [2] (first compound 0.03162 µM); 0.375 in assay [2] (first compound 0.1 µM); 0.329 in assay [2] (first compound 0.3162 µM); 0.294 in assay [2] (first compound 1 µM); 0.611 in assay [3] (first compound 0.01 µM); 0.47 in assay [3] (first compound 0.03162 µM). For the same cell line, the relative viability turned out to be 0.33 in assay [3] (first compound 0.1 µM); 0.587 in assay [3] (first compound 0.3162 µM); 0.284 in assay [3] (first compound 1 µM); 1.06 in assay [4] (first compound 0.03162 µM); 1.08 in assay [4] (first compound 0.1 µM); 0.916 in assay [4] (first compound 0.3162 µM). Moreover, the relative viability in assay [4] (first compound 1 µM) amounted to 1.05.
For SW 1573, the relative viability in assay [1] (first compound 0.01 µM) was 0.235; in assay [1] (first compound 0.03162 µM), 0.19; in assay [1] (first compound 0.1 µM), 0.184; in assay [1] (first compound 0.3162 µM), 0.214; in assay [1] (first compound 1 µM), 0.13; in assay [2] (first compound 0.01 µM), 0.711. The relative viability in assay [2] (first compound 0.03162 µM) was 0.543; in assay [2] (first compound 0.1 µM), 0.491; in assay [2] (first compound 0.3162 µM), 0.409; in assay [2] (first compound 1 µM), 0.411; in assay [4] (first compound 0.03162 µM), 0.906; in assay [4] (first compound 0.1 µM), 0.893. For the same cell line, the relative viability in assay [4] (first compound 0.3162 µM) came to 0.955; in assay [4] (first compound 1 µM) it was 0.891.
NCI-H2085: the relative viability in assay [1] (first compound 0.01 µM) was 0.647; in assay [1] (first compound 0.03162 µM), 0.437; in assay [1] (first compound 0.1 µM), 0.439; in assay [1] (first compound 0.3162 µM), 0.341; in assay [1] (first compound 1 µM), 0.231; in assay [2] (first compound 0.01 µM), 0.504. The relative viability was 0.514 in assay [2] (first compound 0.03162 µM); 0.429 in assay [2] (first compound 0.1 µM); 0.313 in assay [2] (first compound 0.3162 µM); 0.281 in assay [2] (first compound 1 µM); 0.978 in assay [3] (first compound 0.01 µM); 0.925 in assay [3] (first compound 0.03162 µM). For the same cell line, the relative viability in assay [3] (first compound 0.1 µM) was 0.953; in assay [3] (first compound 0.3162 µM), 0.97; in assay [3] (first compound 1 µM), 0.61; in assay [4] (first compound 0.03162 µM) it was 0.856; in assay [4] (first compound 0.1 µM), 0.92; in assay [4] (first compound 0.3162 µM), 1.26. Further, the relative viability in assay [4] (first compound 1 µM) came to 0.902.
